Reference: ChEMBL document CHEMBL1124151, “21-[18F]fluoro-16 alpha-ethyl-19-norprogesterone: synthesis and target tissue selective uptake of a progestin receptor based radiotracer for positron emission tomography” (J Med Chem, 1988)

Legend:
Rattus norvegicus [1] = assay: Distribution in uterus of estrogen-primed immature rats after 1 hour iv administration (120 microCi); settings: in vivo
Rattus norvegicus [2] = assay: Distribution in fat of iestrogen-primed immature blocked rats after 1 hour iv administration (~/= 17 microg); settings: in vivo
Rattus norvegicus [3] = assay: Distribution in muscle of iestrogen-primed immature rats after 3 hour iv administration (120 micro Ci); settings: in vivo
Rattus norvegicus [4] = assay: Distribution in muscle of iestrogen-primed immature rats after 1 hour iv administration (120 microCi); settings: in vivo
Rattus norvegicus [5] = assay: Distribution in bone of iestrogen-primed immature rats after 1 hour iv administration (13 microCi); settings: in vivo
Rattus norvegicus [6] = assay: Distribution in uterus/blood of estrogen-primed immature blocked rats after 1 hour iv administration (~/= 17 microg); settings: other tissue
Rattus norvegicus [7] = assay: Distribution in blood of estrogen-primed immature rats after 1 hour iv administration (120 microCi); settings: in vivo
Rattus norvegicus [8] = assay: Distribution in muscle of iestrogen-primed immature rats after 1 hour iv administration (13 microCi); settings: in vivo
Rattus norvegicus [9] = assay: Distribution in lungs of estrogen-primed immature blocked rats after 1 hour iv administration (~/= 17 microg); settings: in vivo
Rattus norvegicus [10] = assay: Distribution in ovaries of estrogen-primed immature rats after 1 hour iv administration (120 microCi); settings: in vivo
Rattus norvegicus [11] = assay: Distribution in uterus/blood of in estrogen-primed immature rats after 1 hour iv administration (13 microCi); settings: other tissue
Rattus norvegicus [12] = assay: Distribution in uterus/muscle of in estrogen-primed immature rats after 1 hour iv administration (120 microCi); settings: in vivo
Rattus norvegicus [13] = assay: Distribution in uterus/blood of in estrogen-primed immature rats after 1 hour iv administration (120 microCi); settings: other tissue
Rattus norvegicus [14] = assay: Distribution in bone of iestrogen-primed immature rats after 1 hour iv administration (120 microCi); settings: in vivo
Rattus norvegicus [15] = assay: Distribution in liver of estrogen-primed immature rats after 1 hour iv administration (13 microCi); settings: in vivo
Rattus norvegicus [16] = assay: Distribution in blood of estrogen-primed immature blocked rats after 1 hour iv administration (~/= 17 microg); settings: in vivo
Rattus norvegicus [17] = assay: Distribution in uterus of estrogen-primed immature blocked rats after 1 hour iv administration (~/= 17 microg); settings: in vivo
Rattus norvegicus [18] = assay: Distribution in muscle of iestrogen-primed immature blocked rats after 1 hour iv administration (~/= 17 microg); settings: in vivo
Rattus norvegicus [19] = assay: Distribution in brain of estrogen-primed immature rats after 1 hour iv administration (120 microCi); settings: in vivo
Rattus norvegicus [20] = assay: Distribution in ovaries of estrogen-primed immature blocked rats after 1 hour iv administration (~/= 17 microg); settings: in vivo
Rattus norvegicus [21] = assay: Distribution in kidney of estrogen-primed immature rats after 1 hour iv administration (120 microCi); settings: in vivo
Rattus norvegicus [22] = assay: Distribution in uterus of in estrogen-primed immature rats after 1 hour iv administration (13 microCi); settings: in vivo
Rattus norvegicus [23] = assay: Distribution in liver of estrogen-primed immature rats after 3 hour iv administration (120 micro Ci); settings: in vivo
Rattus norvegicus [24] = assay: Distribution in liver of estrogen-primed immature blocked rats after 1 hour iv administration (~/= 17 microg); settings: in vivo
Rattus norvegicus [25] = assay: Distribution in uterus/muscle of estrogen-primed immature rats after 3 hour iv administration (120 micro Ci); settings: in vivo
Rattus norvegicus [26] = assay: Distribution in uterus/blood of estrogen-primed immature rats after 3 hour iv administration (120 micro Ci); settings: in vivo
Rattus norvegicus [27] = assay: Distribution in brain of estrogen-primed immature rats after 3 hour iv administration (120 micro Ci); settings: in vivo
Rattus norvegicus [28] = assay: Distribution in lungs of estrogen-primed immature rats after 1 hour iv administration (120 microCi); settings: in vivo
Rattus norvegicus [29] = assay: Distribution in bone of estrogen-primed immature rats after 3 hour iv administration (120 micro Ci); settings: in vivo
Rattus norvegicus [30] = assay: Distribution in fat of estrogen-primed immature rats after 3 hour iv administration (120 micro Ci); settings: in vivo
Rattus norvegicus [31] = assay: Distribution in ovaries of estrogen-primed immature rats after 3 hour iv administration (120 micro Ci); settings: in vivo
Rattus norvegicus [32] = assay: Distribution in bone of iestrogen-primed immature blocked rats after 1 hour iv administration (~/= 17 microg); settings: in vivo
Rattus norvegicus [33] = assay: Distribution in lungs of estrogen-primed immature rats after 3 hour iv administration (120 micro Ci); settings: in vivo
Rattus norvegicus [34] = assay: Distribution in uterus of in estrogen-primed immature rats after 3 hour iv administration; settings: in vivo
Rattus norvegicus [35] = assay: Distribution in kidney of estrogen-primed immature rats after 1 hour iv administration (13 microCi); settings: in vivo
Rattus norvegicus [36] = assay: Distribution in ovaries of estrogen-primed immature rats after 1 hour iv administration (13 microCi); settings: in vivo
Rattus norvegicus [37] = assay: Distribution in fat of iestrogen-primed immature rats after 1 hour iv administration (13 microCi); settings: in vivo
Rattus norvegicus [38] = assay: Distribution in kidney of estrogen-primed immature rats after 3 hour iv administration (120 micro Ci); settings: in vivo
Rattus norvegicus [39] = assay: Distribution in kidney of estrogen-primed immature blocked rats after 1 hour iv administration (~/= 17 microg); settings: in vivo
Rattus norvegicus [40] = assay: Distribution in liver of estrogen-primed immature rats after 1 hour iv administration (120 microCi); settings: in vivo
Rattus norvegicus [41] = assay: Distribution in lungs of estrogen-primed immature rats after 1 hour iv administration (13 microCi); settings: in vivo
Rattus norvegicus [42] = assay: Distribution in blood of estrogen-primed immature rats after 3 hour iv administration (120 micro Ci); settings: in vivo
Rattus norvegicus [43] = assay: Distribution in brain of estrogen-primed immature blocked rats after 1 hour iv administration (~/= 17 microg); settings: in vivo
Rattus norvegicus [44] = assay: Distribution in brain of estrogen-primed immature rats after 1 hour iv administration (13 microCi); settings: in vivo
Rattus norvegicus [45] = assay: Distribution in fat of iestrogen-primed immature rats after 1 hour iv administration; settings: in vivo
Rattus norvegicus [46] = assay: Distribution in blood of estrogen-primed immature rats after 1 hour iv administration (13 microCi); settings: in vivo
Rattus norvegicus [47] = assay: Distribution in uterus/muscle of estrogen-primed immature blocked rats after 1 hour iv administration (~/= 17 microg); settings: in vivo
Rattus norvegicus [48] = assay: Distribution in uterus/muscle of in estrogen-primed immature rats after 1 hour iv administration (13 microCi); settings: in vivo

CC[C@@H]1C[C@H]2[C@@H]3CCC4=CC(=O)CC[C@@H]4[C@H]3CC[C@]2(C)[C@H]1C(=O)C[18F]
Distribution (Rattus norvegicus [1]): 6.43%
Distribution (Rattus norvegicus [2]): 2.9%
Distribution (Rattus norvegicus [3]): 0.12%
Distribution (Rattus norvegicus [4]): 0.42%
Distribution (Rattus norvegicus [5]): 3.06%
uterus/blood ratio (Rattus norvegicus [6]): 2.53
Distribution (Rattus norvegicus [7]): 0.25%
Distribution (Rattus norvegicus [8]): 0.39%
Distribution (Rattus norvegicus [9]): 0.3%
Distribution (Rattus norvegicus [10]): 2.86%
Distribution (Rattus norvegicus [11]): 21.18%
Distribution (Rattus norvegicus [12]): 15.98%
Distribution (Rattus norvegicus [13]): 26.26%
Distribution (Rattus norvegicus [14]): 3.18%
Distribution (Rattus norvegicus [15]): 2.59%
Distribution (Rattus norvegicus [16]): 0.15%
Distribution (Rattus norvegicus [17]): 0.38%
Distribution (Rattus norvegicus [18]): 0.25%
Distribution (Rattus norvegicus [19]): 0.63%
Distribution (Rattus norvegicus [20]): 1%
Distribution (Rattus norvegicus [21]): 1.05%
Distribution (Rattus norvegicus [22]): 4.03%
Distribution (Rattus norvegicus [23]): 1.01%
Distribution (Rattus norvegicus [24]): 2.09%
Distribution (Rattus norvegicus [25]): 41.16%
uterus/blood ratio (Rattus norvegicus [26]): 71.2
Distribution (Rattus norvegicus [27]): 0.14%
Distribution (Rattus norvegicus [28]): 0.47%
Distribution (Rattus norvegicus [29]): 5.55%
Distribution (Rattus norvegicus [30]): 2.78%
Distribution (Rattus norvegicus [31]): 1.72%
Distribution (Rattus norvegicus [32]): 3.09%
Distribution (Rattus norvegicus [33]): 0.12%
Distribution (Rattus norvegicus [34]): 4.63%
Distribution (Rattus norvegicus [35]): 0.86%
Distribution (Rattus norvegicus [36]): 2.37%
Distribution (Rattus norvegicus [37]): 4.13%
Distribution (Rattus norvegicus [38]): 0.33%
Distribution (Rattus norvegicus [39]): 0.58%
Distribution (Rattus norvegicus [40]): 3.34%
Distribution (Rattus norvegicus [41]): 0.57%
Distribution (Rattus norvegicus [42]): 0.07%
Distribution (Rattus norvegicus [43]): 0.32%
Distribution (Rattus norvegicus [44]): 0.48%
Distribution (Rattus norvegicus [45]): 3.56%
Distribution (Rattus norvegicus [46]): 0.19%
Distribution (Rattus norvegicus [47]): 1.59%
Distribution (Rattus norvegicus [48]): 11.06%
